We go through 1 compound from patent US8974830B2, “Particles and contrast agent including the same for optical imaging” (Canon Kabushiki Kaisha, priority 2012, dated 2015).

The data set can be described thus: Accumulation rate in popliteal lymph nodes after subcutaneous plantar administration. The data set is classed as in vivo, mouse. The following applies: 24 hours after subcutaneous plantar administration, 13 nmol dye. How it is done:
PNP10 prepared in EXAMPLE 10 was administered subcutaneously into the plantar surface of a mouse. Extirpation was performed 24 hours after administration. After homogenization, extraction was performed with an organic solvent to measure the accumulation rate in the popliteal lymph nodes. The amount administered was 13 nmol in terms of the amount of the dye. As a comparative example, an aqueous solution of ICG was also administered, and the accumulation rate was measured. The accumulation rate of PNP10 in the lymph nodes was about 80 times higher than that of ICG.

SMILES strings stand for the structures.

For `CC1(C)C(/C=C/C=C/C=C/C=C2\N(CCCCS(=O)(=O)O)c3ccc4ccccc4c3C2(C)C)=[N+](CCCCS(=O)(=O)[O-])c2ccc3ccccc3c21` [ICG, Indocyanine green], the “Accumulation rate in lymph node (% ID)” value was found to be 0.1 % ID.
